# In US20010044445A1, “AZOLE INHIBITORS OF CYTOKINE PRODUCTION” (priority 1999, published 2001):
# Legend:
# [1] = system: Human peripheral blood mononuclear cells; experiment: Human Concanavalin-A Proliferation Assay (Con HU Assay); type: cell-based; conditions: Homo sapiens, PBMC, concanavalin-A stimulated human PBMC; for inhibition at 1 µM / inhibition at 10 µM / inhibition at 100 µM: 72 h, 3 days, read-out: % Inhibition of proliferation (at concentrations of 1,10, or 100 μm); for inhibition at 1 µM: concentration 1 μm (in parentheses in the cell); for inhibition at 10 µM: concentration 10 μm (in parentheses in the cell); for IC50: tritiated thymidine; for inhibition at 100 µM: concentration 100 μm (in parentheses in the cell)
# Method in brief: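 Proliferation read as tritiated thymidine uptake (0.5 μCi/well, 6 h pulse on day 3) in human PBMC cultured 3 days with 2.5 μg/ml (final) concanavalin-A. Cells, 50,000 per well in supplemented RPMI 1640 with 10% FBS, received compound 15 min before mitogen.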
melting point,SMILES,inhibition at 1 µM [1],inhibition at 10 µM [1],IC50 [1],inhibition at 100 µM [1]
176 to 178 °C,"O=C(Cc1cc2ccccc2[nH]1)Nc1ccc(-n2nc(C(F)(F)F)cc2C(F)(F)F)cc1 [Example 170, N-[4-[3,5-bis(trifluoromethyl)-1H-pyrazol-1-yl]phenyl]-1H-indole-2-acetamide]",25%,,,
216 to 218 °C,"O=C(/C=C/c1cccs1)Nc1ccc(-n2nc(C(F)(F)F)cc2C(F)(F)F)cc1 [Example 171, (E)-N-[4-[3,5-bis(trifluoromethyl)-1H-pyrazol-1-yl]phenyl]-3-(2-thienyl)-2-propenamide]",12%,,,
160 to 161 °C,"N#Cc1cccc(C(=O)Nc2cccc(-n3nc(C(F)(F)F)cc3C(F)(F)F)c2)c1 [Example 204, N-[3-[3,5-bis(trifluoromethyl)-1H-pyrazol-1-yl]phenyl]-3-cyanobenzamide]",12%,,,
177 to 178 °C,"Cc1noc(C)c1C(=O)Nc1ccc(-n2ccc(C(F)(F)F)n2)cc1 [Example 287, 3,5-dimethyl-N-[4-[3-(trifluoromethyl)-1H-pyrazol-1-yl)phenyl]-4-isoxazolecarboxamide]",24%,,,
165 to 166 °C,"O=C(Nc1ccc(-n2nc(-c3ccoc3)cc2Cl)cc1)c1ccncc1F [Example 356, N-(4-(5-chloro-3-(3-furyl)-1H-pyrazol-1-yl)phenyl)-3-fluoroisonicotinamide]",,,247 nM,
138 to 140 °C,"O=C(Nc1ccc(-n2nc(C(F)(F)F)cc2C(F)(F)F)cc1)c1cc(F)c(F)c(F)c1F [Example 235, N-[4-[3,5-bis(trifluoromethyl)-1H-pyrazol-1-yl]phenyl]-2,3,4,5-tetrafluorobenzamide]",,100%,107 nM,
160 to 161 °C,"O=C(Nc1ccc(-n2nc(C(F)(F)F)cc2C(F)(F)F)cc1)c1c(Cl)ccc([N+](=O)[O-])c1Cl [Example 216, N-[4-[3,5-bis(trifluoromethyl)-1H-pyrazol-1-yl]phenyl]-2,6-dichloro-3-nitrobenzamide]",,100%,267 nM,
184 to 185 °C,"O=C(Nc1ccc(-n2nc(C(F)(F)F)cc2Cl)cc1)c1ccncc1Cl [Example 346, 3-chloro-N-(4-(5-chloro-3-(trifluoromethyl)-1H-pyrazol-1-yl)phenyl)isonicotinamide]",,,117 nM,
154 to 155 °C,"O=C(Nc1ccc(-n2nc(C(F)(F)F)cc2OC(F)F)cc1)c1cccc(F)c1F [Example 354, N-(4-(5-(difluoromethoxy)-3-(trifluoromethyl)-1H-pyrazol-1-yl)phenyl)-2,3-difluorobenzamide]",,,75 nM,

# Continued, molecule first:
SMILES,melting point,inhibition at 1 µM [1],inhibition at 10 µM [1],IC50 [1],inhibition at 100 µM [1]
"O=C(Nc1ccc(F)cc1)c1ccc(-n2nc(C(F)(F)F)cc2C(F)(F)F)cc1 [Example 30, 4-[3,5-bis(trifluoromethyl)-1H-pyrazol-1-yl]-N-(4-fluorophenyl)benzamide]",194 to 195 °C,6%,,,
"O=C(Nc1ccc(-n2nc(C(F)(F)F)cc2C(F)(F)F)cc1)c1ccc(O)cc1 [Example 73, N-[4-[3,5-bis(trifluoromethyl)-1H-pyrazol-1-yl]phenyl]-4-hydroxybenzamide]",> 245 °C,,93%,388 nM,
"O=C(Nc1ccc(-n2nc(C(F)(F)F)cc2C(F)(F)F)cc1)C1(O)CC1 [Example 17, N-[4-[3,5-bis(trifluoromethyl)-1H-pyrazol-1-yl]phenyl]-1-hydroxycyclopropanecarboxamide]",198 to 200 °C,18%,,,
"Cc1ccc(NC(=O)Nc2ccc(-n3nc(C(F)(F)F)cc3C(F)(F)F)cc2)c([N+](=O)[O-])c1 [Example 43, N-[4-[3,5-bis(trifluoromethyl)-1H-pyrazol-1-yl]phenyl]-N′-(4-methyl-2-nitrophenyl)urea]",213 to 214 °C,,98%,354 nM,
"Fc1ccc(CNc2ccc(-n3nc(C(F)(F)F)cc3C(F)(F)F)cc2)cc1 [Example 84, N-[4-[3,5-bis(trifluoromethyl)-1H-pyrazol-1-yl]phenyl]-4-fluorobenzenemethanamine]",92 to 94 °C,76%,,712 nM,
"O=C(O)c1cccc(C(=O)Nc2ccc(-n3nc(C(F)(F)F)cc3C(F)(F)F)cc2)c1 [Example 159, 3-[[[4-[3,5-bis(trifluoromethyl)-1H-pyrazol-1-yl]phenyl]amino]carbonyl]benzoic acid]",244 to 245 °C,,93%,2930 nM,
"O=C(Nc1ccc(-n2nc(C(F)(F)F)cc2C(F)(F)F)cc1)c1ccccc1Cl [Example 91, N-[4-[3,5-bis(trifluoromethyl)-1H-pyrazol-1-yl]phenyl]-2-chlorobenzamide]",155 to 157 °C,,,138 nM,99%
"O=C(Nc1ccc(-n2nc(C(F)(F)F)cc2C(F)(F)F)cc1)c1ccc(I)cc1 [Example 69, N-[4-[3,5-bis(trifluoromethyl)-1H-pyrazol-1-yl]phenyl]-4-iodobenzamide]",196 to 198 °C,,,506 nM,98%
"O=C(Nc1ccc(-n2nc(C(F)(F)F)cc2C(F)(F)F)cc1)C1CCNCC1 [Example 125, N-[4-[3,5-bis(trifluoromethyl)-1H-pyrazol-1-yl]phenyl]-4-piperidinecarboxamide]",156 to 159 °C,6%,,,
"Fc1ccc(NCc2ccc(-n3nc(C(F)(F)F)cc3C(F)(F)F)cc2)cc1 [Example 94, 4-[3,5-Bis(trifluoromethyl)-1H-pyrazol-1-yl]-N-(4-fluorophenyl)benzenemethanamine]",102 to 103 °C,,3%,,
"O=C(Nc1ccc(-n2nc(C(F)(F)F)cc2C(F)(F)F)cc1)c1cccc(I)c1 [Example 25, N-[4-[3,5-bis(trifluoromethyl)-1H-pyrazol-1-yl]phenyl]-3-iodobenzamide]",192 to 193 °C,,100%,396 nM,
"O=C(Nc1ccc(-n2nc(C(F)(F)F)cc2C(F)(F)F)cc1)c1ccccc1[N+](=O)[O-] [Example 136, N-[4-[3,5-bis(trifluoromethyl)-1H-pyrazol-1-yl]phenyl]-2-nitrobenzamide]",174 to 176 °C,,,222 nM,99%
"O=C(Nc1ccc(-n2nc(C(F)(F)F)cc2C(F)(F)F)cc1)c1ccccc1Br [Example 147, N-[4-[3,5-bis(trifluoromethyl)-1H-pyrazol-1-yl]phenyl]-2-bromobenzamide]",182 to 184 °C,,,71 nM,99%
"Cc1cc(Br)cc(C)c1NC(=O)Nc1ccc(-n2nc(C(F)(F)F)cc2C(F)(F)F)cc1 [Example 45, N-[4-[3,5-bis(trifluoromethyl)-1H-pyrazol-1-yl]phenyl]-N′-(4-bromo-2,6-dimethylphenyl)urea]",> 230 °C,18%,,,
"O=C(Nc1ccc(-n2nc(C(F)(F)F)cc2C(F)(F)F)cc1)c1ccccc1 [Example 92, N-[4-[3,5-bis(trifluoromethyl)-1H-pyrazol-1-yl]phenyl]benzamide]",177 to 178 °C,,,673 nM,92%
